Test results reported in patent US11471465B2 (priority 2017, dated 2022).
Like-named read-outs stand apart in the source and are kept apart here.

Columns and labels:
[1] = Procedure: The effect of varying amounts of potassium carbonate (K2CO3) and sodium bicarbonate (NaHCO3) on the pH of acidic media was tested. The acidic media was chosen to simulate gastric conditions. K2CO3 or NaHCO3 was added to 50 mL of a 0.01 N HCl solution (pH 2). The pH of the solution was measured after addition of the K2CO3 or NaHCO3. Deionized water (240 mL) was then added to the mixture and pH was measured again.
[2] = system: moderate and severe migraine; test: Phase 3 placebo- and active-controlled trial (MOMENTUM), patients with inadequate response to prior acute treatments, Example 11
[3] = Dissolution testing of the monolayer meloxicam/rizatriptan tablet in 0.01 N HCl, Example 4; type: physicochemical; conditions: monolayer tablet of Example 4, 0.01 N HCl, 75 RPM, 37° C
Procedure: Dissolution testing of the tablets in acidic medium (chosen to simulate gastric conditions) was performed by placing the tablets in a 0.01 N HCl solution, at an agitation rate of 75 RPM, and vessel temperature of approximately 37° C.

[4] = cited from earlier work
[5] = from 2 hours to 24 hours after dosing

With `O=C([O-])O.[Na+]` [NaHCO3, sodium bicarbonate] the pH ([1]; 200 mg NaHCO3, 0.01 N HCl + 240 mL water) was 5.41, the pH ([1]; 200 mg NaHCO3 added to 50 mL 0.01 N HCl) was 5.28 and the pH ([1]; 300 mg NaHCO3, 0.01 N HCl + 240 mL water) was 5.89. It also gave a pH ([1]; 300 mg NaHCO3 added to 50 mL 0.01 N HCl) of 5.90, a pH ([1]; 400 mg NaHCO3, 0.01 N HCl + 240 mL water) of 6.11 and a pH ([1]; 400 mg NaHCO3 added to 50 mL 0.01 N HCl) of 6.44. For the same compound, the pH ([1]; 450 mg NaHCO3, 0.01 N HCl + 240 mL water) was 6.46, the pH ([1]; 450 mg NaHCO3 added to 50 mL 0.01 N HCl) was 6.86 and the pH ([1]; 500 mg NaHCO3, 0.01 N HCl + 240 mL water) was 8.33. The pH ([1]; 500 mg NaHCO3 added to 50 mL 0.01 N HCl) was 8.23, the pH ([1]; 750 mg NaHCO3, 0.01 N HCl + 240 mL water) was 8.54 and the pH ([1]; 750 mg NaHCO3 added to 50 mL 0.01 N HCl) was 8.30. For the same compound, the pH ([1]; 1000 mg NaHCO3, 0.01 N HCl + 240 mL water) was 8.60 and the pH ([1]; 1000 mg NaHCO3 added to 50 mL 0.01 N HCl) was 8.36.
`O=C([O-])[O-].[K+].[K+]` [Tablet K2CO3, potassium carbonate] showed a pH ([1]; 25 mg K2CO3 added to 50 mL 0.01 N HCl) of 2.84, a pH ([1]; 35 mg K2CO3 added to 50 mL 0.01 N HCl) of 6.29 and a pH ([1]; 45 mg K2CO3 added to 50 mL 0.01 N HCl) of 8.05. For the same compound, the pH ([1]; 50 mg K2CO3 added to 50 mL 0.01 N HCl) was 8.29, the pH ([1]; 100 mg K2CO3 added to 50 mL 0.01 N HCl) was 9.43 and the pH ([1]; 200 mg K2CO3, 0.01 N HCl + 240 mL water) was 10.27. For the same compound, the pH ([1]; 200 mg K2CO3 added to 50 mL 0.01 N HCl) was 10.14, the pH ([1]; 300 mg K2CO3, 0.01 N HCl + 240 mL water) was 10.46 and the pH ([1]; 300 mg K2CO3 added to 50 mL 0.01 N HCl) was 10.39. It also gave a pH ([1]; 400 mg K2CO3, 0.01 N HCl + 240 mL water) of 10.57, a pH ([1]; 400 mg K2CO3 added to 50 mL 0.01 N HCl) of 10.55 and a pH ([1]; 450 mg K2CO3, 0.01 N HCl + 240 mL water) of 10.63. The pH ([1]; 450 mg K2CO3 added to 50 mL 0.01 N HCl) was 10.58.
In the case of Rizatriptan, the “patients experiencing relapse of pain” value ([2]; 48-hour period after dosing) is reported as 45.2%, the “probability of experiencing pain relief” value ([2]; 24 hours after taking) is reported as “approximately 60%” and the “proportion of patients experiencing pain relief” value ([2]; […] after dosing) is reported as 52.5%. The “percentage of patients achieving sustained pain freedom” value [2, 5] was 11.2%, the “percentage of patients experiencing sustained pain relief” value [2, 5] was 43.9% and the “percentage of patients experiencing sustained pain freedom” value ([2]; from 2 hours to 48 hours) was 8.8%. For the same compound, the “percentage of patients experiencing sustained pain relief” value ([2]; from 2 hours to 48 hours) was 36.5%, the “median time to pain relief” value ([2]; human, in vivo) was 4 h and the “Any Treatment-Emergent Adverse Event, % of subjects” value ([2]; single dose) was “(15.4%)”. For the same compound, the “Any Treatment-Emergent Adverse Event, number of subjects” value ([2]; single dose) was 67, the “Dizziness, % of subjects” value ([2]; single dose) was “(2.1%)” and the “Dizziness, number of subjects” value ([2]; single dose) was 9. The “Nausea, % of subjects” value ([2]; single dose) was “(4.8%)”, the “Nausea, number of subjects” value ([2]; single dose) was 21 and the “Somnolence, % of subjects” value ([2]; single dose) was “(2.1%)”. For the same compound, the “Somnolence, number of subjects” value ([2]; single dose) was 9, the “patients who used rescue medication” value ([2]; through hour 24 post dose) was 34.7% and the percent dissolved ([3]; 0 min) was 0%. It also gave a percent dissolved ([3]; 15 min) of 89%, a percent dissolved ([3]; 30 min) of 102% and a percent dissolved ([3]; 45 min) of 103%. It also gave a percent dissolved ([3]; 60 min) of 103%, a percent dissolved ([3]; 90 min) of 103% and a percent dissolved ([3]; 120 min) of 103%.
For `Cc1cnc(NC(=O)C2=C(O)c3ccccc3S(=O)(=O)N2C)s1` [Meloxicam], the AUC0-24 of meloxicam ([4]; 15 mg IV and intramuscular doses, human beings) is listed as “about 27 μg·hr/mL”, the “reported Tmax” value ([4]; intramuscular) is listed as 60 to 84 min and the “reported Tmax” value ([4]; intravenous bolus) is listed as ~3 min. For the same compound, the “reported Tmax” value ([4]; intravenous infusion) was “approximately 30 minutes”, the percent dissolved ([3]; 0 min) was 0% and the percent dissolved ([3]; 15 min) was 79%. For the same compound, the percent dissolved ([3]; 30 min) was 92%, the percent dissolved ([3]; 45 min) was 93% and the percent dissolved ([3]; 60 min) was 93%. For the same compound, the percent dissolved ([3]; 90 min) was 93% and the percent dissolved ([3]; 120 min) was 94%.
